The source of these data is article PMC7694948, “Mitochondrial Targeting in an Anti-Austerity Approach Involving Bioactive Metabolites Isolated from the Marine-Derived Fungus Aspergillus sp” (Marine Drugs, 2020).

Where two headings read alike, the source gives them in different places.

The target in data set [1] is Mitochondrial complex I (NADH oxidase/coenzyme Q reductase) (Bos taurus, UniProt P03887+P17694+P25708+P42026). Briefly: MitoCheck Complex Activity Assay, complex I. The data set is classed as biochemical, bovine. As for the experimental part: (§1) The inhibitory activity of compound 1 on the mitochondrial electron transport chain (complexes I–V) was analyzed using MitoCheck Complex Activity Assay kits (Cayman Chemical) following the manufacturer’s instructions. The kits measured the enzymatic activity of each complex derived from bovine heart mitochondria in the following systems: Mitochondrial complex I (NADH oxidase/coenzyme Q reductase) activity was determined by measuring the decrease in NADH oxidation, which is reflected by a decrease in absorbance at 340 nm. Mitochondrial complex II (succinate dehydrogenase/coenzyme Q reductase) activity was assessed on the basis of the reduction rate of 2, 6-dichlorophenolindophenol (protonated by reduced coenzyme Q), which is reflected by a decrease in absorbance at 600 nm. Mitochondrial complex III (coenzyme Q cytochrome c oxidoreductase) activity was determined on the basis of the cytochrome c reduction rate, which is reflected by an increase in absorbance at 550 nm. Mitochondrial complex IV (cytochrome c oxidase) activity was determined by measuring the cytochrome c oxidation rate, which is reflected by a decrease in absorbance at 550 nm. Mitochondrial complex V (F1F0 ATP synthase) activity was determined by the NADH oxidation rate, which can be monitored at 340 nm.

Another data set has as its system NCI-H460 cells. Set-up: method as in PMID 18758101. The following applies: 100 µg/mL (352 µM); cited from earlier work.
For another data set, the system named is HL-60 cells. Also noted: method as in PMID 18758101. To be noted: cited from earlier work.
Data set [2] deals with T1, Mitochondrial complex II (succinate dehydrogenase/coenzyme Q reductase) (Bos taurus, UniProt P31039+P35720+Q3T189+Q95123).
T1 construct: enzymatic activity of each complex derived from bovine heart mitochondria; purchased Cayman Chemical; host or cells: bovine heart mitochondria (tissue-derived, supplied in kit)
T1 sequence (P31039 44-665): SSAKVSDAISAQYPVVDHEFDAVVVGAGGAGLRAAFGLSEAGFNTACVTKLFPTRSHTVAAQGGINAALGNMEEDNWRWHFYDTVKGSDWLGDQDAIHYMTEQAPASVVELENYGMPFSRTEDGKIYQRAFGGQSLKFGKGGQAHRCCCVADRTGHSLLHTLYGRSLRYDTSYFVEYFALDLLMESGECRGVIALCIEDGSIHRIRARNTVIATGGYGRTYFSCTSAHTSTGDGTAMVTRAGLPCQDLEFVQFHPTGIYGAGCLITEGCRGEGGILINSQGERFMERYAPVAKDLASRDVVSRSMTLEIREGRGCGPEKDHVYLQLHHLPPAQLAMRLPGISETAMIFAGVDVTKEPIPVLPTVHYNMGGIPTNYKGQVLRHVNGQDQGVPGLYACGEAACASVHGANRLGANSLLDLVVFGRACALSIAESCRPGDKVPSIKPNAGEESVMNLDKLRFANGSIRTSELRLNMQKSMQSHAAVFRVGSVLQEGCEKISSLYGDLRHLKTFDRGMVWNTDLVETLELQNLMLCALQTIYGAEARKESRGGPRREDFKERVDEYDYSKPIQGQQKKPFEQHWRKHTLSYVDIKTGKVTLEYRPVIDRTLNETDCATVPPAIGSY
T1 sequence (Q3T189 29-280): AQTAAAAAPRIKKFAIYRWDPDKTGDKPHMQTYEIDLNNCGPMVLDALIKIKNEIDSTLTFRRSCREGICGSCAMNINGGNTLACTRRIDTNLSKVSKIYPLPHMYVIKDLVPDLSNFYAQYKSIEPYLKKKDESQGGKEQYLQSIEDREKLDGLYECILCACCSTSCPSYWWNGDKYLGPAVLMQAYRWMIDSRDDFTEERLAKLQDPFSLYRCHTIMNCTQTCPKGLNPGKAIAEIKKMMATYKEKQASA
T1 sequence (P35720 30-169): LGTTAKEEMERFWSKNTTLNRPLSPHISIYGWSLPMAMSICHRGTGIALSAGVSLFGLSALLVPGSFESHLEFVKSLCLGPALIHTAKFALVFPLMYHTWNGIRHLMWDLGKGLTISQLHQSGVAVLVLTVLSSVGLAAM
T1 sequence (Q95123 56-158): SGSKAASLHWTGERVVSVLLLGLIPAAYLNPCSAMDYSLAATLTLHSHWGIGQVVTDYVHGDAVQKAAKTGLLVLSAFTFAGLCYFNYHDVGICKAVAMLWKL
Briefly: MitoCheck Complex Activity Assay, complex II. It is filed as biochemical, bovine. To be noted: for IC50: bovine heart mitochondria. As for the experimental part:
as §1

In the next data set the test system is SF-268 cells. Set-up: method as in PMID 18758101. To be noted: 100 µg/mL (352 µM); cited from earlier work.
The next data set concerns K-562 cells. Set-up: method as in PMID 18758101. To be noted: cited from earlier work.
Another data set relates to A-549 cells. Also noted: method as in PMID 18758101. The following applies: cited from earlier work.
The next data set deals with MCF-7 cells. Set-up: method as in PMID 18758101. To be noted: 100 µg/mL (352 µM); cited from earlier work.
Another data set relates to P-388 cells. Set-up: method as in PMID 18758101. To be noted: cited from earlier work.
Data set [3] addresses Mitochondrial complex V (F1F0 ATP synthase) (Bos taurus, UniProt P00829+P00847+P19483+P32876). In words: MitoCheck Complex Activity Assay, complex V. The data set is classed as biochemical, bovine. As for the experimental part: as §1
The next data set deals with lung cancer cells. Also noted: method as in PMID 26479318, PMID 21725807. To be noted: general culture conditions; cited from earlier work.
Data set [4] concerns glucose-6-phosphate dehydrogenase. Also noted: method as in PMID 26479318. To be noted: against breast cancer cells; cited from earlier work.
Data set [5] has as its system nasopharyngeal carcinoma cells. Set-up: method as in PMID 27694907. The following applies: general culture conditions; cited from earlier work.
The next data set relates to K562 cell lines. Also noted: method as in PMID 26479318. To be noted: K562, general culture conditions; cited from earlier work.
Another data set relates to SUPB15 cell lines. Set-up: method as in PMID 28810515. To be noted: SUPB15, general culture conditions; cited from earlier work.
A further data set has as its system cervical carcinoma cells. Set-up: method as in PMID 24071573. The following applies: general culture conditions; cited from earlier work.
Another data set deals with CCRF-ADR5000 cells. Set-up: method as in PMID 29707146. The following applies: CCRF-ADR5000, general culture conditions; cited from earlier work.
The next data set has as its system colon cancer cells. Set-up: method as in PMID 26707141, PMID 20837130. To be noted: general culture conditions; cited from earlier work.
The test system of the next data set is NALM6 cell lines. Also noted: method as in PMID 28810515. The following applies: NALM6, general culture conditions; cited from earlier work.
The subject of another data set is U937 cell lines. Also noted: method as in PMID 20796195. The following applies: U937, general culture conditions; cited from earlier work.
For data set [6], the system named is hepatocellular carcinoma cells. Also noted: method as in PMID 28042511, PMID 29710489. The following applies: general culture conditions; cited from earlier work.
The subject of a further data set is breast cancer cells. Set-up: method as in PMID 25574462. To be noted: general culture conditions; cited from earlier work.
[7] abbreviates: conversion of 10 µg/mL, read-out: IC50.

By inhibition is commonly meant the share of the control response that was lost under treatment. Read a high inhibition as a strong effect. Usually IC50 stands for the concentration that gives 50% inhibition. For the compound `C/C=C/C=C/c1cc2c(C=O)c(O)c(CC=C(C)C)cc2o1` [Compound 2, 2-(2′,3-epoxy-1′,3′,5′-heptatrienyl)-6-hydroxy-5-(3-methyl-2-butenyl) benzaldehyde], the inhibition at 100 µM was 18% in data set [1] (100 µM) and 24% in data set [2] (100 µM). Further, the IC50 in data set [1] (bovine heart mitochondria) was over 100 µM; with HL-60 cells it was “higher than 10 µg/mL”; in the data set with HL-60 cells (setting [7]) it was over 35.2 µM; in data set [2] it was over 100 µM; with K-562 cells, “higher than 10 µg/mL”; in the data set with K-562 cells (setting [7]), over 35.2 µM. The IC50 result in the data set with A-549 cells is “higher than 10 µg/mL”; with A-549 cells (setting [7]) it was over 35.2 µM; with P-388 cells it was “higher than 10 µg/mL”; in the data set with P-388 cells (setting [7]), over 35.2 µM; in data set [3] (bovine heart mitochondria), over 100 µM. Further, the cytotoxic effect result in the data set on NCI-H460 cells, in the data set with SF-268 cells and in the data set on MCF-7 cells was “more than 90%” throughout. In addition, the “inhibition of complex V” value in [3] (100 µM) was “not inhibited”.

For `COc1cc(O)c2c(c1)C(=O)c1cc(C)cc(O)c1C2=O` [Compound 1, physcion], the IC50 with lung cancer cells was 15.1 to 35.1 µM; in data set [5] it was 20 µM; with K562 cell lines, 12.5 µM; with SUPB15 cell lines, 5 µM; in the data set on cervical carcinoma cells, 100 µM; in data set [2] it was 90 ± 0.11 µM. Further, the IC50 was 74.8 µM with CCRF-ADR5000 cells; 10 to 50 µM in the data set with colon cancer cells; 5 µM in the data set with NALM6 cell lines; 27.9 µM in the data set with U937 cell lines; 10 µM in data set [6]; 45.4 µM with breast cancer cells. The “inhibition of glucose-6-phosphate dehydrogenase” value in data set [4] is “specific inhibitor”.
